Test results: patent publication US20060089378A1 (priority 2004, published 2006)
Read-outs that look alike come from different tables or passages of the source.

Key:
Cannabinoid CB1 Receptor = molecular target: T1, Cannabinoid CB1 Receptor (Homo sapiens, UniProt P21554); assay: Binding assay for CB1 agonists or inverse agonists (radioligand competition, membranes of transfected SK-N-MC cells); conditions: for inhibition at 0.2 µM: read-out: Cannabinoid CB1 Receptor Binding percent inhibition
T1 construct: expressed in transfected cells
T1 sequence (P21554 whole entry): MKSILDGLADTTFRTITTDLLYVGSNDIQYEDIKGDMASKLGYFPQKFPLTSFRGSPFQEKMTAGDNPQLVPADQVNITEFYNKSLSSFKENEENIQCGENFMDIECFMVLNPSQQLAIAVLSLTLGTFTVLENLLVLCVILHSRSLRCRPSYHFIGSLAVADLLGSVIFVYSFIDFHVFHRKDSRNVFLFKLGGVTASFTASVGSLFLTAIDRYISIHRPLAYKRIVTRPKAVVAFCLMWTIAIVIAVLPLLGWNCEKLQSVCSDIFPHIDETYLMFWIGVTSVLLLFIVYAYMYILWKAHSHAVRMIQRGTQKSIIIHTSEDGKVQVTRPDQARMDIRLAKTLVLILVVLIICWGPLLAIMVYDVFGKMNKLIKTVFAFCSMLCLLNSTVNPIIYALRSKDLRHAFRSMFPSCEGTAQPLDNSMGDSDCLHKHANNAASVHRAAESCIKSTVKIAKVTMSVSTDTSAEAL

Cannabinoid CB2 Receptor = molecular target: T2, Cannabinoid CB2 Receptor (Homo sapiens, UniProt P34972); assay: Binding assay for CB2 agonists or inverse agonists (radioligand competition, membranes of transfected SK-N-MC cells); conditions: for inhibition at 0.2 µM: read-out: Cannabinoid CB2 Receptor Binding percent inhibition
T2 construct: expressed in transfected cells
T2 sequence (P34972 whole entry): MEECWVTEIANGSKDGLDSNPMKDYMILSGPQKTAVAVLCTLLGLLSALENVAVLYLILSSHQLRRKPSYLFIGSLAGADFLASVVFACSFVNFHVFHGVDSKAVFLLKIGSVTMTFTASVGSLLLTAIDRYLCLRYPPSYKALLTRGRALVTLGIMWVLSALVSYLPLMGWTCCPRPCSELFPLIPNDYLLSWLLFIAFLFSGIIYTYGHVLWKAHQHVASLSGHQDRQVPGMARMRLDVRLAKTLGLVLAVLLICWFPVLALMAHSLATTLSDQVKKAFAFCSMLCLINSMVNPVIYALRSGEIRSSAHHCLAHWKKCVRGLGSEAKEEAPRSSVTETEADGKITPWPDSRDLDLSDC

[1] = test concentration of 0.2 μM, compounds without an IC50 binding value

SMILES	inhibition at 0.2 µM (Cannabinoid CB1 Receptor; [1]) [%]	inhibition at 0.2 µM (Cannabinoid CB2 Receptor; [1]) [%]	also measured
C[C@H](NC(=O)c1nn(-c2ccc(Cl)cc2Cl)c2c1CN(C(=O)OC(C)(C)C)C/C2=C\c1ccc(F)cc1)C1CCCCC1 [Cpd 4, (7E)-3-[(1S)-1-cyclohexyl-ethylcarbamoyl]-1-(2,4-dichloro-phenyl)-7-(4-fluoro-benzylidene)-1,4,6,7-tetrahydro-pyrazolo[4,3-c]pyridine-5-carboxylic acid tert-butyl ester]	–	–	inhibition at 0.2 µM (Cannabinoid CB1 Receptor): 48%; inhibition at 0.2 µM (Cannabinoid CB2 Receptor): 9%
C[C@H](NC(=O)c1nn(-c2ccc(Cl)cc2Cl)c2c1CNC/C2=C\c1ccc(F)cc1)C1CCCCC1 [Cpd 5, (7E)-1-(2,4-dichloro-phenyl)-7-(4-fluoro-benzylidene)-4,5,6,7-tetrahydro-1H-pyrazolo[4,3-c]pyridine-3-carboxylic acid [(1S)-1-cyclohexyl-ethyl]-amide]	–	–	inhibition at 0.2 µM (Cannabinoid CB1 Receptor): 48%; inhibition at 0.2 µM (Cannabinoid CB2 Receptor): 8%
COc1ccc(/C=C2\CN(S(=O)(=O)N(C)C)Cc3c(C(=O)N[C@H](C)c4ccccc4)nn(-c4ccc(Cl)cc4Cl)c32)cc1 [Cpd 47]	–	–	IC50 (Cannabinoid CB1 Receptor): 2 nM; Cannabinoid CB2 Receptor Binding percent inhibition (Cannabinoid CB2 Receptor; [1]): 66%
COc1ccc(/C=C2\CN(CC(=O)O)Cc3c(C(=O)N[C@H](C)c4ccccc4)nn(-c4ccc(Cl)cc4Cl)c32)cc1 [Cpd 51, (7E)-[1-(2,4-dichloro-phenyl)-7-(4-methoxy-benzylidene)-3-[(1R)-1-phenyl-ethylcarbamoyl]-1,4,6,7-tetrahydro-pyrazolo[4,3-c]pyridin-5-yl]-acetic acid]	49	19	–
C[C@@H](NC(=O)c1nn(-c2ccc(Cl)cc2Cl)c2c1CN(CC(=O)O)C/C2=C\c1ccc(F)cc1)c1ccccc1 [Cpd 52, (7E)-[1-(2,4-dichloro-phenyl)-7-(4-fluoro-benzylidene)-3-[(1R)-1-phenyl-ethylcarbamoyl]-1,4,6,7-tetrahydro-pyrazolo[4,3-c]pyridin-5-yl]-acetic acid]	38	7	–
CC(NC(=O)c1nn(-c2ccc(Cl)cc2)c2c1CN(C(=O)OC(C)(C)C)C/C2=C\c1ccc(F)cc1)c1ccccn1 (stereo not shown) [Cpd 73, (7E)-1-(4-chloro-phenyl)-7-(4-fluoro-benzylidene)-3-(1-pyridin-2-yl-ethylcarbamoyl)-1,4,6,7-tetrahydro-pyrazolo[4,3-c]pyridine-5-carboxylic acid tert-butyl ester]	50	6	–
CC(C)(C)OC(=O)N1C/C(=C\c2ccc(F)cc2)c2c(c(C(=O)NN3CCCCC3)nn2-c2ccc(Cl)cc2)C1 [Cpd 74, (7E)-1-(4-chloro-phenyl)-7-(4-fluoro-benzylidene)-3-(piperidin-1-ylcarbamoyl)-1,4,6,7-tetrahydro-pyrazolo[4,3-c]pyridine-5-carboxylic acid tert-butyl ester]	39	3	–
CC(=O)N1C/C(=C\c2ccc(F)cc2)c2c(c(C(=O)NN3CCCCC3)nn2-c2ccc(Cl)cc2)C1 [Cpd 81, (7E)-5-acetyl-1-(4-chloro-phenyl)-7-(4-fluoro-benzylidene)-4,5,6,7-tetrahydro-1H-pyrazolo[4,3-c]pyridine-3-carboxylic acid piperidin-1-ylamide]	10	22	–
COC(=O)N1C/C(=C\c2ccc(F)cc2)c2c(c(C(=O)NN3CCCCC3)nn2-c2ccc(Cl)cc2)C1 [Cpd 82, (7E)-1-(4-chloro-phenyl)-7-(4-fluoro-benzylidene)-3-(piperidin-1-ylcarbamoyl)-1,4,6,7-tetrahydro-pyrazolo[4,3-c]pyridine-5-carboxylic acid methyl ester]	–	–	IC50 (Cannabinoid CB1 Receptor): 60 nM; Cannabinoid CB2 Receptor Binding percent inhibition (Cannabinoid CB2 Receptor; [1]): 32%
CCNC(=O)N1C/C(=C\c2ccc(F)cc2)c2c(c(C(=O)NN3CCCCC3)nn2-c2ccc(Cl)cc2)C1 [Cpd 83, (7E)-1-(4-chloro-phenyl)-7-(4-fluoro-benzylidene)-1,4,6,7-tetrahydro-pyrazolo[4,3-c]pyridine-3,5-dicarboxylic acid 5-ethylamide 3-piperidin-1-ylamide]	32	19	–
CC(C)(C)OC(=O)N1C/C(=C\c2ccc(F)cc2)c2c(c(C(=O)NN3CC4CCCC4C3)nn2-c2ccc(Cl)cc2)C1 (stereo not shown) [Cpd 84, (7E)-1-(4-chloro-phenyl)-7-(4-fluoro-benzylidene)-3-(hexahydro-cyclopenta[c]pyrrol-2-ylcarbamoyl)-1,4,6,7-tetrahydro-pyrazolo[4,3-c]pyridine-5-carboxylic acid tert-butyl ester]	30	12	–
O=C(NN1CC2CCCC2C1)c1nn(-c2ccc(Cl)cc2)c2c1CNC/C2=C\c1ccc(F)cc1 (stereo not shown) [Cpd 85, (7E)-1-(4-chloro-phenyl)-7-(4-fluoro-benzylidene)-4,5,6,7-tetrahydro-1H-pyrazolo[4,3-c]pyridine-3-carboxylic acid (hexahydro-cyclopenta[c]pyrrol-2-yl)-amide]	45	11	–
CC(=O)N1C/C(=C\c2ccc(F)cc2)c2c(c(C(=O)NN3CC4CCCC4C3)nn2-c2ccc(Cl)cc2)C1 (stereo not shown) [Cpd 86, (7E)-5-acetyl-1-(4-chloro-phenyl)-7-(4-fluoro-benzylidene)-4,5,6,7-tetrahydro-1H-pyrazolo[4,3-c]pyridine-3-carboxylic acid (hexahydro-cyclopenta[c]pyrrol-2-yl)-amide]	46	24	–
CC(C)(C)OC(=O)N1C/C(=C\c2ccc(F)cc2)c2c(c(C(=O)NN3CC4CCCC4C3)nn2-c2ccc(Cl)cc2Cl)C1 (stereo not shown) [Cpd 88, (7E)-1-(2,4-dichloro-phenyl)-7-(4-fluoro-benzylidene)-3-(hexahydro-cyclopenta[c]pyrrol-2-ylcarbamoyl)-1,4,6,7-tetrahydro-pyrazolo[4,3-c]pyridine-5-carboxylic acid tert-butyl ester]	53	0	–
COc1ccc(/C=C2\CN(C(=O)OC(C)(C)C)Cc3c(C(=O)NN4CC5CCCC5C4)nn(-c4ccc(Cl)cc4Cl)c32)cc1 (stereo not shown) [Cpd 94, (7E)-1-(2,4-dichloro-phenyl)-3-(hexahydro-cyclopenta[c]pyrrol-2-ylcarbamoyl)-7-(4-methoxy-benzylidene)-1,4,6,7-tetrahydro-pyrazolo[4,3-c]pyridine-5-carboxylic acid tert-butyl ester]	70	38	–
CCNC(=O)N1C/C(=C\c2ccc(OC)cc2)c2c(c(C(=O)NN3CC4CCCC4C3)nn2-c2ccc(Cl)cc2Cl)C1 (stereo not shown) [Cpd 101, (7E)-1-(2,4-dichloro-phenyl)-7-(4-methoxy-benzylidene)-1,4,6,7-tetrahydro-pyrazolo[4,3-c]pyridine-3,5-dicarboxylic acid 5-ethylamide 3-[(hexahydro-cyclopenta[c]pyrrol-2-yl)-amide]]	68	15	–
CCCCn1nc(C(=O)NN2CCCCC2)c2c1CCN(C(=O)OC)C2 [Cpd 102, 1-butyl-3-(piperidin-1-ylcarbamoyl)-1,4,6,7-tetrahydro-pyrazolo[4,3-c]pyridine-5-carboxylic acid methyl ester]	–	23	–
CC12CCC(C1)C(C)(C)C2NC(=O)c1nn(Cc2ccccc2)c2c1CN(C(=O)OCc1ccccc1)CC2 (stereo not shown) [Cpd 108, 1-benzyl-3-(1,3,3-trimethyl-bicyclo[2.2.1]hept-2-ylcarbamoyl)-1,4,6,7-tetrahydro-pyrazolo[4,3-c]pyridine-5-carboxylic acid benzyl ester]	–	–	IC50 (Cannabinoid CB1 Receptor): 200 nM; IC50 (Cannabinoid CB2 Receptor): 2 nM
CCC(=O)N1CCc2c(c(C(=O)NC3C4(C)CCC(C4)C3(C)C)nn2Cc2ccccc2)C1 (stereo not shown) [Cpd 110, 1-benzyl-5-propionyl-4,5,6,7-tetrahydro-1H-pyrazolo[4,3-c]pyridine-3-carboxylic acid (1,3,3-trimethyl-bicyclo[2.2.1]hept-2-yl)-amide]	–	–	IC50 (Cannabinoid CB1 Receptor): 500 nM; IC50 (Cannabinoid CB2 Receptor): 20 nM
CC12CCC(C1)C(C)(C)C2NC(=O)c1nn(C2CCCCC2)c2c1CN(C(=O)OCc1ccccc1)CC2 (stereo not shown) [Cpd 121, 1-cyclohexyl-3-(1,3,3-trimethyl-bicyclo[2.2.1]hept-2-ylcarbamoyl)-1,4,6,7-tetrahydro-pyrazolo[4,3-c]pyridine-5-carboxylic acid benzyl ester]	–	–	IC50 (Cannabinoid CB1 Receptor): 1500 nM; IC50 (Cannabinoid CB2 Receptor): 90 nM
CCOC(=O)CN1CCc2c(c(C(=O)NC3C4(C)CCC(C4)C3(C)C)nn2C2CCCCC2)C1 (stereo not shown) [Cpd 126, [1-cyclohexyl-3-(1,3,3-trimethyl-bicyclo[2.2.1]hept-2-ylcarbamoyl)-1,4,6,7-tetrahydro-pyrazolo[4,3-c]pyridin-5-yl]-acetic acid ethyl ester]	–	49	IC50 (Cannabinoid CB1 Receptor; human CB1, SK-N-MC cell membranes, calculated by linear regression from percent inhibition at various concentrations, read-out: Cannabinoid CB1 Receptor Binding IC50): 1200 nM
CC(C)(C)OC(=O)N1CCc2c(c(C(=O)NC3C4CC5CC(C4)CC3C5)nn2C2CCCCC2)C1 (stereo not shown) [Cpd 130, 3-(adamantan-2-ylcarbamoyl)-1-cyclohexyl-1,4,6,7-tetrahydro-pyrazolo[4,3-c]pyridine-5-carboxylic acid tert-butyl ester]	–	–	IC50 (Cannabinoid CB1 Receptor): 60 nM
CC(C)(C)OC(=O)N1C/C(=C\c2ccc(F)cc2)c2c(c(C(=O)N3CCCCC3)nn2-c2ccc(Cl)cc2Cl)C1 [Cpd 135, (7E)-1-(2,4-dichloro-phenyl)-7-(4-fluoro-benzylidene)-3-(piperidine-1-carbonyl)-1,4,6,7-tetrahydro-pyrazolo[4,3-c]pyridine-5-carboxylic acid tert-butyl ester]	40	28	–
CC(=O)N1C/C(=C\c2ccc(F)cc2)c2c(c(C(=O)N(C(C)=O)N3CC4CCCC4C3)nn2-c2ccc(Cl)cc2)C1 (stereo not shown) [Cpd 136, (7E)-5-acetyl-1-(4-chloro-phenyl)-7-(4-fluoro-benzylidene)-4,5,6,7-tetrahydro-1H-pyrazolo[4,3-c]pyridine-3-carboxylic acid acetyl-(hexahydro-cyclopenta[c]pyrrol-2-yl)-amide]	39	22	–
